{"source": "patent US8017633B2", "about": "“Roflumilast for the treatment of diabetes mellitus” (Nycomed GmbH, priority 2005, dated 2011)", "key": {"[1]": {"test_system": "C57BLKS db/db mice", "test": "10 days study: fasting blood glucose and oral glucose tolerance in db/db mice", "format": "in vivo, mouse", "details": "for Blood glucose (15 min after glucose application) / Blood glucose (before glucose application): fasted 24 h; for Blood glucose (15 min after glucose application): 15 min after oral 1 g/kg glucose; for Blood glucose (before glucose application): 1 h after dose", "method": "(§1) Female C57BLKS db/db mice obtained from M&B A/S (8680 Ry, Denmark) were used in the studies at 10 to 11 weeks of age. Mice were housed 10 per cage and allowed free access to water and standard laboratory diet for rodents (chow 3433, Provimi Kliba SA, 4303 Kaiseraugst, Switzerland).\nMice were allowed to acclimate to the local animal facilities for 1 week and retro-orbital blood samples were obtained 3 to 7 days prior to the start of the study.\n(§2) Mice were treated with vehicle, Roflumilast or Roflumilast-N-Oxide, respectively once daily in the morning. Roflumilast or Roflumilast-N-Oxide was suspended in 4% methocel and applied via oral gavage using oral feeding & dosing needles (outer diameter: 1.5 mm, TSE GmbH, 61350 Bad Homburg, Germany). A volume of 10 ml/kg body weight was administered for each dose.\n10 days studies: Mice were treated with vehicle, Roflumilast or Roflumilast-N-Oxide once daily in the morning. On day 9, mice were fasted for 24 hours by removing standard diet for laboratory animals 1 hour after drug application. On day 10, one hour after administration of vehicle, Roflumilast or Roflumilast-N-Oxide glucose tolerance was assessed by oral application of 1 g/kg/10 ml glucose. Blood was sampled before and 15 minutes after glucose application and levels of glucose (accu-chek, Roche Diagnostics GmbH, 68298 Mannheim, Germany) were measured."}, "[2]": {"test_system": "C57BLKS db/db mice", "test": "Daily food intake of db/db mice during once-daily oral treatment", "format": "in vivo, mouse", "method": "as §1, §2\nThe daily intake of food (chow 3433) and water was measured per animal (total daily intake of food divided by the number of animals) before and during the treatment with Roflumilast or Roflumilast-N-Oxide."}, "[3]": {"details": "Rof-N-Oxide 1 mg/kg oral once daily 10 days"}, "[4]": {"details": "Rof-N-Oxide 3 mg/kg oral once daily 10 days"}, "[5]": {"details": "Rof-N-Oxide 10 mg/kg oral once daily 10 days"}, "[6]": {"details": "Rof-N-Oxide 30 mg/kg oral once daily 10 days"}}, "data": [{"smiles": "O=C(Nc1c(Cl)c[n+]([O-])cc1Cl)c1ccc(OC(F)F)c(OCC2CC2)c1", "note": "[Rof-N-Oxide, 3-cyclopropylmethoxy-4-difluoromethoxy-N-(3,5-dichloro-1-oxido-pyridin-4-yl)benzamide]", "values": [{"measurement": "Blood glucose (15 min after glucose application)", "setting": "[1]; [3]", "result": 595, "unit": "mg/dL"}, {"measurement": "Blood glucose (before glucose application)", "setting": "[1]; [3]", "result": 220, "unit": "mg/dL"}, {"measurement": "Blood glucose (15 min after glucose application)", "setting": "[1]; [4]", "result": 467, "unit": "mg/dL"}, {"measurement": "Blood glucose (before glucose application)", "setting": "[1]; [4]", "result": 174, "unit": "mg/dL"}, {"measurement": "Blood glucose (15 min after glucose application)", "setting": "[1]; [5]", "result": 423, "unit": "mg/dL"}, {"measurement": "Blood glucose (before glucose application)", "setting": "[1]; [5]", "result": 139, "unit": "mg/dL"}, {"measurement": "Blood glucose (15 min after glucose application)", "setting": "[1]; [6]", "result": 326, "unit": "mg/dL"}, {"measurement": "Blood glucose (before glucose application)", "setting": "[1]; [6]", "result": 146, "unit": "mg/dL"}, {"measurement": "Effect on fasting blood glucose levels (summary in words)", "setting": "[1]; db/db mice", "result": "reduce"}, {"measurement": "Effect on postprandial blood glucose levels (summary in words)", "setting": "[1]; db/db mice", "result": "reduce"}, {"measurement": "Daily food intake before the first application", "setting": "[2]; 1 mg/kg group, Day −1, before first application", "result": 6.4, "unit": "g per mouse"}, {"measurement": "Daily food intake before the first application", "setting": "[2]; 1 mg/kg group, Day −2, before first application", "result": 6.4, "unit": "g per mouse"}, {"measurement": "Daily food intake before the first application", "setting": "[2]; 1 mg/kg group, Day −3, before first application", "result": 6.4, "unit": "g per mouse"}, {"measurement": "Daily food intake before the first application", "setting": "[2]; 1 mg/kg group, Day −4, before first application", "result": 5.9, "unit": "g per mouse"}, {"measurement": "Daily food intake before the first application", "setting": "[2]; 1 mg/kg group, Day −5, before first application", "result": 6.0, "unit": "g per mouse"}, {"measurement": "Daily food intake on the days of application", "setting": "[2]; 1 mg/kg oral once daily, Day 1", "result": 5.4, "unit": "g per mouse"}, {"measurement": "Daily food intake on the days of application", "setting": "[2]; 1 mg/kg oral once daily, Day 2", "result": 5.4, "unit": "g per mouse"}, {"measurement": "Daily food intake on the days of application", "setting": "[2]; 1 mg/kg oral once daily, Day 3", "result": 5.8, "unit": "g per mouse"}, {"measurement": "Daily food intake on the days of application", "setting": "[2]; 1 mg/kg oral once daily, Day 4", "result": 5.5, "unit": "g per mouse"}, {"measurement": "Daily food intake on the days of application", "setting": "[2]; 1 mg/kg oral once daily, Day 5", "result": 5.6, "unit": "g per mouse"}, {"measurement": "Daily food intake on the days of application", "setting": "[2]; 1 mg/kg oral once daily, Day 6", "result": 5.8, "unit": "g per mouse"}, {"measurement": "Daily food intake on the days of application", "setting": "[2]; 1 mg/kg oral once daily, Day 7", "result": 5.4, "unit": "g per mouse"}, {"measurement": "Daily food intake on the days of application", "setting": "[2]; 1 mg/kg oral once daily, Day 8", "result": 5.5, "unit": "g per mouse"}, {"measurement": "Daily food intake before the first application", "setting": "[2]; 3 mg/kg group, Day −1, before first application", "result": 6.1, "unit": "g per mouse"}, {"measurement": "Daily food intake before the first application", "setting": "[2]; 3 mg/kg group, Day −2, before first application", "result": 6.1, "unit": "g per mouse"}, {"measurement": "Daily food intake before the first application", "setting": "[2]; 3 mg/kg group, Day −3, before first application", "result": 6.4, "unit": "g per mouse"}, {"measurement": "Daily food intake before the first application", "setting": "[2]; 3 mg/kg group, Day −4, before first application", "result": 6.4, "unit": "g per mouse"}, {"measurement": "Daily food intake before the first application", "setting": "[2]; 3 mg/kg group, Day −5, before first application", "result": 5.5, "unit": "g per mouse"}, {"measurement": "Daily food intake on the days of application", "setting": "[2]; 3 mg/kg oral once daily, Day 1", "result": 4.9, "unit": "g per mouse"}, {"measurement": "Daily food intake on the days of application", "setting": "[2]; 3 mg/kg oral once daily, Day 2", "result": 4.9, "unit": "g per mouse"}, {"measurement": "Daily food intake on the days of application", "setting": "[2]; 3 mg/kg oral once daily, Day 3", "result": 4.5, "unit": "g per mouse"}, {"measurement": "Daily food intake on the days of application", "setting": "[2]; 3 mg/kg oral once daily, Day 4", "result": 4.5, "unit": "g per mouse"}, {"measurement": "Daily food intake on the days of application", "setting": "[2]; 3 mg/kg oral once daily, Day 5", "result": 4.6, "unit": "g per mouse"}, {"measurement": "Daily food intake on the days of application", "setting": "[2]; 3 mg/kg oral once daily, Day 6", "result": 4.9, "unit": "g per mouse"}, {"measurement": "Daily food intake on the days of application", "setting": "[2]; 3 mg/kg oral once daily, Day 7", "result": 4.3, "unit": "g per mouse"}, {"measurement": "Daily food intake on the days of application", "setting": "[2]; 3 mg/kg oral once daily, Day 8", "result": 4.2, "unit": "g per mouse"}, {"measurement": "Daily food intake before the first application", "setting": "[2]; 10 mg/kg group, Day −1, before first application", "result": 6.5, "unit": "g per mouse"}, {"measurement": "Daily food intake before the first application", "setting": "[2]; 10 mg/kg group, Day −2, before first application", "result": 6.4, "unit": "g per mouse"}, {"measurement": "Daily food intake before the first application", "setting": "[2]; 10 mg/kg group, Day −3, before first application", "result": 6.4, "unit": "g per mouse"}, {"measurement": "Daily food intake before the first application", "setting": "[2]; 10 mg/kg group, Day −4, before first application", "result": 6.2, "unit": "g per mouse"}, {"measurement": "Daily food intake before the first application", "setting": "[2]; 10 mg/kg group, Day −5, before first application", "result": 6.0, "unit": "g per mouse"}, {"measurement": "Daily food intake on the days of application", "setting": "[2]; 10 mg/kg oral once daily, Day 1", "result": 2.9, "unit": "g per mouse"}, {"measurement": "Daily food intake on the days of application", "setting": "[2]; 10 mg/kg oral once daily, Day 2", "result": 3.3, "unit": "g per mouse"}, {"measurement": "Daily food intake on the days of application", "setting": "[2]; 10 mg/kg oral once daily, Day 3", "result": 3.5, "unit": "g per mouse"}, {"measurement": "Daily food intake on the days of application", "setting": "[2]; 10 mg/kg oral once daily, Day 4", "result": 2.9, "unit": "g per mouse"}, {"measurement": "Daily food intake on the days of application", "setting": "[2]; 10 mg/kg oral once daily, Day 5", "result": 3.0, "unit": "g per mouse"}, {"measurement": "Daily food intake on the days of application", "setting": "[2]; 10 mg/kg oral once daily, Day 6", "result": 3.1, "unit": "g per mouse"}, {"measurement": "Daily food intake on the days of application", "setting": "[2]; 10 mg/kg oral once daily, Day 7", "result": 2.6, "unit": "g per mouse"}, {"measurement": "Daily food intake on the days of application", "setting": "[2]; 10 mg/kg oral once daily, Day 8", "result": 3.8, "unit": "g per mouse"}, {"measurement": "Daily food intake before the first application", "setting": "[2]; 30 mg/kg group, Day −1, before first application", "result": 6.3, "unit": "g per mouse"}, {"measurement": "Daily food intake before the first application", "setting": "[2]; 30 mg/kg group, Day −2, before first application", "result": 6.2, "unit": "g per mouse"}, {"measurement": "Daily food intake before the first application", "setting": "[2]; 30 mg/kg group, Day −3, before first application", "result": 6.5, "unit": "g per mouse"}, {"measurement": "Daily food intake before the first application", "setting": "[2]; 30 mg/kg group, Day −4, before first application", "result": 6.4, "unit": "g per mouse"}, {"measurement": "Daily food intake before the first application", "setting": "[2]; 30 mg/kg group, Day −5, before first application", "result": 5.8, "unit": "g per mouse"}, {"measurement": "Daily food intake on the days of application", "setting": "[2]; 30 mg/kg oral once daily, Day 1", "result": 1.4, "unit": "g per mouse"}, {"measurement": "Daily food intake on the days of application", "setting": "[2]; 30 mg/kg oral once daily, Day 2", "result": 0.9, "unit": "g per mouse"}]}]}
